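Protocol summary: plate cells (96-well), add compound at 5 concentrations, incubate 48 h, interpolate endpoints linearly. Here, GI50 denotes the concentration required for 50% inhibition of growth.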 Active and inactive are the calls of the source. Cut-off read from the data, not from the text of the source: active = GI50 up to about 1.1 µM and inactive = higher. Residues, ends and D or L forms follow the SMILES beside them. *: point of attachment. Boc = CC(C)(C)OC(=O)*

Experiment in all cases: NCI anticancer screen, dose series, 48 h
The test system of assay [1] is NCI-H522.
Assay [2] concerns SF-295.
The test system of assay [3] is OVCAR-8.
In assay [4] the test system is Hs-578T.
The test system of assay [5] is SNB-19.
In assay [6] the test system is TK-10.
In assay [7] the test system is LOX IMVI.
Assay [8] relates to HL-60.
The subject of assay [9] is EKVX.
For assay [10], the system named is MCF7.
In assay [11] the test system is HOP-62.
Assay [12] relates to HOP-92.
The test system of assay [13] is CCRF-CEM.
The test system of assay [14] is MDA-N.
Assay [15] relates to T47D.
Assay [16] deals with NCI-H226.
The test system of assay [17] is UACC-257.
In assay [18] the test system is NCI/ADR-RES.
Assay [19] relates to HCC 2998.
Assay [20] relates to RXF 393.

On to `COc1ccc(C2SCC(=O)N2c2ccc(-c3ccc(-n4c(-c5ccccc5)nc5ccccc5c4=O)cc3)cc2)cc1` (centres undefined), for which the GI50 in [1] is 30.3 µM (inactive); in assay [2] it was 47 µM (inactive); in [3] it was 78.7 µM (inactive); in assay [4], 25.9 µM (inactive); in assay [5], > 100 µM (inactive); in assay [6] it was 45.2 µM (inactive). Besides, the GI50 was > 100 µM (inactive) in assay [7]; 54.3 µM (inactive) in assay [8]; > 100 µM (inactive) in assay [9]; 26.1 µM (inactive) in [10]; 69.8 µM (inactive) in assay [11]; 15.7 µM (inactive) in assay [12]. Moreover, the GI50 in assay [13] is 28.6 µM (inactive); in assay [14], 65.9 µM (inactive); in assay [15] it was 21 µM (inactive); in assay [16], 65.3 µM (inactive); in [17], > 100 µM (inactive); in [18], 96.2 µM (inactive). Also, in [19], the GI50 was 30.1 µM (inactive).
Regarding `COC(=O)[C@@H]1N2C(=S)N(c3ccccc3)C(=O)[C@H]2SC1(C)C`, the GI50 in assay [1], in [2], in assay [3], in assay [5], in [20] and in assay [6] was > 100 µM (inactive) each time. In addition, the GI50 in assay [9] is > 100 µM (inactive); in assay [10], > 100 µM (inactive); in assay [11], > 100 µM (inactive); in assay [12], 55.6 µM (inactive); in assay [14], > 100 µM (inactive); in assay [15], > 100 µM (inactive). Further, the GI50 in assay [16], in [17], in [18] and in [19] was > 100 µM (inactive) each time.
With `Cn1cc2c3ccccc3nc-2c2ccccc21` [ISOCRYPTOLEPINE], the GI50 in [1] is 1.41 µM (inactive); in [2] it was 2.78 µM (inactive); in [3] it was 1.6 µM (inactive); in [4], 2.3 µM (inactive); in assay [5], 2.96 µM (inactive); in assay [6], 3.93 µM (inactive). The GI50 in [7] is 1.77 µM (inactive); in [8], 2.04 µM (inactive); in [10] it was 2.67 µM (inactive); in assay [11], 1.59 µM (inactive); in [12], 1.91 µM (inactive); in [13] it was 1.45 µM (inactive). For the same compound, the GI50 in assay [14] is 2.04 µM (inactive); in [15] it was 2.07 µM (inactive); in assay [17], 2.31 µM (inactive); in [18], 1.72 µM (inactive); in assay [19], 1.6 µM (inactive).
For the compound `C[n+]1c(-c2ccc(/C=N/NC(=O)C(=O)N/N=C/c3ccc(-c4cn5ccsc5[n+]4C)cc3)cc2)cn2ccsc21`, the GI50 in assay [1] is > 100 µM (inactive); in [2], 53.5 µM (inactive); in assay [3], > 100 µM (inactive); in assay [4], > 100 µM (inactive); in assay [5] it was > 100 µM (inactive); in [6], > 100 µM (inactive). The GI50 in [8] is > 100 µM (inactive); in assay [9], > 100 µM (inactive); in [10], > 100 µM (inactive); in assay [11], > 100 µM (inactive); in assay [13] it was > 100 µM (inactive); in assay [14], 47.8 µM (inactive). For the same compound, the GI50 in [15], in assay [17], in assay [18] and in assay [19] was > 100 µM (inactive) throughout.
Take `Cc1cn(C2CC(COCc3ccccc3)N(CCO[Si](C)(C)C(C)(C)C)O2)c(=O)[nH]c1=O` (centres undefined): the GI50 in assay [1] was 16.2 µM (inactive); in [2], 16.4 µM (inactive); in [3] it was 15.5 µM (inactive); in [5], 13.6 µM (inactive); in [20], 15.5 µM (inactive); in assay [6], 14.3 µM (inactive). Further, the GI50 in [10] is 18.5 µM (inactive); in [11] it was 17.3 µM (inactive); in [12], 8.81 µM (inactive); in assay [14], 14.6 µM (inactive); in [15], 13.5 µM (inactive); in assay [18], 14.3 µM (inactive).
As to `CC(C)=CCC/C(C)=C\CC/C(C)=C/CO`, the GI50 in assay [1] was 14.2 µM (inactive); in [2], 23.1 µM (inactive); in [3], 21.6 µM (inactive); in assay [4] it was 28.8 µM (inactive); in [5], 18.5 µM (inactive); in [6], 25.7 µM (inactive). Moreover, the GI50 in assay [7] is > 10 µM (inactive); in assay [8] it was 17.1 µM (inactive); in assay [9] it was 30.6 µM (inactive); in assay [10], 19.3 µM (inactive); in assay [11] it was 19.6 µM (inactive); in assay [12], 10.5 µM (inactive). The GI50 in [13] is 19.5 µM (inactive); in [14] it was 65.6 µM (inactive); in assay [15], 31 µM (inactive); in assay [16] it was 36.4 µM (inactive); in assay [17] it was 36.1 µM (inactive); in assay [18], 13.7 µM (inactive). Also, the GI50 in assay [19] is 22.6 µM (inactive).
As to `O=C1CSC(c2ccccc2[N+](=O)[O-])N1c1ccc(-c2ccc(-n3c(-c4ccccc4)nc4ccccc4c3=O)cc2)cc1` (centres undefined), the GI50 in assay [1], in assay [2], in assay [3], in assay [4], in [5] and in assay [6] was > 100 µM (inactive) each time. In addition, the GI50 is 54 µM (inactive) in assay [7]; > 100 µM (inactive) in assay [8]; > 100 µM (inactive) in [9]; 80.5 µM (inactive) in assay [10]; > 100 µM (inactive) in assay [11]; 46.6 µM (inactive) in assay [12]. Besides, the GI50 was 46.2 µM (inactive) in [13]; > 100 µM (inactive) in assay [14]; 29.1 µM (inactive) in [15]; > 100 µM (inactive) in assay [16]; > 100 µM (inactive) in [17]; 86.5 µM (inactive) in assay [18]. In assay [19], the GI50 is > 100 µM (inactive).
`COc1ccc(OC)c2sc(N3C(=O)/C(=C/c4ccc(SC)cc4)N=C3c3ccccc3)nc12`: the GI50 was 42 µM (inactive) in [2]; 27.7 µM (inactive) in [3]; 17.7 µM (inactive) in assay [4]; 26.4 µM (inactive) in assay [5]; > 100 µM (inactive) in assay [6]; 25.6 µM (inactive) in [7]. In addition, the GI50 in [8] is 25.5 µM (inactive); in assay [9], 32.1 µM (inactive); in assay [10], 20.3 µM (inactive); in assay [11], 16.4 µM (inactive); in assay [12] it was 55.7 µM (inactive); in assay [13], 8.17 µM (inactive). Also, the GI50 in assay [14] is 20.3 µM (inactive); in [15], 26.3 µM (inactive); in [17], 17.3 µM (inactive); in [18] it was 29.3 µM (inactive); in assay [19] it was 71.4 µM (inactive).
With `CCCC[C@H]1CCN2C[C@@H](O)[C@@H](O)[C@H]2[C@@H]1O`, the GI50 in [1], in assay [2], in assay [3], in assay [4], in assay [5] and in assay [6] was > 100 µM (inactive) each time. The GI50 in [7], in assay [8], in [9], in [10], in assay [12] and in [13] was > 100 µM (inactive) each time. The GI50 in assay [14], in assay [15], in assay [16], in assay [17], in [18] and in assay [19] was > 100 µM (inactive) in each case.
For the compound `Nc1c(C(=O)O)nnc2cc(Cl)c(Cl)cc12`, the GI50 in assay [1], in [2], in assay [3], in assay [4], in [5] and in assay [6] was > 100 µM (inactive) throughout. The GI50 in assay [7] was 82 µM (inactive); in [8], 57 µM (inactive); in assay [9], > 100 µM (inactive); in assay [10], > 100 µM (inactive); in assay [11] it was > 100 µM (inactive); in assay [13] it was > 100 µM (inactive). Also, the GI50 in assay [14] was > 100 µM (inactive); in [15], > 100 µM (inactive); in assay [16], 47.8 µM (inactive); in [17], > 100 µM (inactive); in [18] it was > 100 µM (inactive); in assay [19], > 100 µM (inactive).
For `CC(C)(C)OC(=O)NC(Cc1ccc(O)cc1)C(=O)NC(CCCCN)C(=O)O` (stereo not drawn) (Boc-Tyr-Lys-OH; configuration not given here), the GI50 in assay [1] was 6.41 µM (inactive); in assay [3] it was 35.2 µM (inactive); in [5], 22 µM (inactive); in assay [6], 37.9 µM (inactive); in assay [7] it was 15 µM (inactive); in [8], 23.7 µM (inactive). Further, the GI50 in assay [10] is 30.4 µM (inactive); in assay [11], 20.6 µM (inactive); in assay [13] it was 33.4 µM (inactive); in [14] it was 32.6 µM (inactive); in assay [15] it was 15.3 µM (inactive); in assay [16], 39.8 µM (inactive). Also, the GI50 in [17] is 27.5 µM (inactive); in assay [19], 28.9 µM (inactive).
Turning to `Cc1nc(Nc2nc3ccccc3[nH]2)nc(Cl)c1CCCl`, the GI50 in [1] is > 100 µM (inactive); in [3] it was > 100 µM (inactive); in assay [4], 83.8 µM (inactive); in [5], > 100 µM (inactive); in assay [6], > 100 µM (inactive); in assay [8], > 100 µM (inactive). For the same compound, the GI50 is > 100 µM (inactive) in assay [9]; < 0.01 µM (active) in assay [12]; > 100 µM (inactive) in [13]; > 100 µM (inactive) in assay [14]; > 100 µM (inactive) in assay [15]; > 100 µM (inactive) in assay [16]. Also, the GI50 in assay [17] and in assay [18] was > 100 µM (inactive) in each case.

The record behind these values is ChEMBL document CHEMBL1201862, “PubChem BioAssay data set” (2004).
